Measured values taken from ChEMBL document CHEMBL5674860, “Optimized Dual-Glo Assay to identify co-culture-induced drug vulnerabilities in 3D CRC models” (2024).
Several values for one entry are separate records, joined by “and”; a condition that tells them apart may be missing. Equal entries are not always repeated.

What was measured:
Type in all cases: functional, Homo sapiens
Parameters in all cases: dose or concentration left out as unconfirmed
[1] = system: Colon cancer organoid; test: Optimized Dual-Glo assay to identify co-culture induced drug vulnerabilities using donated chemical probes and chemogenomics kinase set in O14 CRC organoid and F14 CAF mono and co-culture. […] Cell viability is reported both mono and co-culture models.
[2] = system: Colon cancer organoid; test: Optimized Dual-Glo assay to identify co-culture induced drug vulnerabilities using donated chemical probes and chemogenomics kinase set in O20 CRC organoid and F20 CAF mono and co-culture. […] Cell viability is reported both mono and co-culture models.
[3] = system: Colon cancer organoid; test: Optimized Dual-Glo assay to identify co-culture induced drug vulnerabilities using donated chemical probes and chemogenomics kinase set in O06 CRC organoid and F06 CAF mono and co-culture. […] Cell viability is reported both mono and co-culture models.
[4] = Culture type Co-Culture, Transduced with Lucferase2-P2A-EGFP lentivirus
[5] = Culture type Co-Culture, Transduced with Renilla-dsRed lentivirus
[6] = Culture type Mono-Culture, Transduced with Lucferase2-P2A-EGFP lentivirus
[7] = Culture type Mono-Culture, Transduced with Renilla-dsRed lentivirus

SMILES | Cell Viability [1, 4] | Cell Viability [1, 5] | Cell Viability [1, 6] | Cell Viability [1, 7] | Cell Viability [2, 4] | Cell Viability [2, 5] | Cell Viability [2, 6] | Cell Viability [2, 7] | Cell Viability [3, 4] | Cell Viability [3, 5] | Cell Viability [3, 6] | Cell Viability [3, 7]
CNc1nc(-c2ccc3c(N)n[nH]c3c2)cc(N2C[C@@H](C(=O)NC3CCCCC3)CC[C@H]2C)n1 | 75.802% | 81.9858% | 103.482% | 52.6977% | 51.6899% | 121.574% | 29.0897% | 81.2947% | 59.8926% | 53.4401% | 68.2825% | 54.6916%
Cc1ccc(NC(=O)Nc2cc(C(F)(F)F)ccc2F)cc1Nc1ccc2c(c1)NC(=O)/C2=C\c1ccc[nH]1 | 100.84% | 80.7866% | 148.906% | 94.1932% | 98.8429% | 67.3177% | 149.041% | 99.6693% | 112.777% | 121.077% | 144.763% | 85.6075%
OCCn1cc(-c2ccc3c(c2)CCC3=NO)c(-c2ccncc2)n1 | 155.629% | 130.506% | 186.115% | 118.266% | 201.802% | 70.8995% | 81.9137% | 103.135% | 81.3359% | 109.303% | 157.495% | 121.815%
Cc1ccc(C(=O)Nc2cccc(C(F)(F)F)c2)cc1Nc1nc(-c2cccnc2)nc2c1cnn2C | 103.322% | 86.6207% | 91.8457% | 71.8424% | 141.672% | 123.917% | 68.1835% | 97.2478% | 60.2736% | 70.9034% | 100.972% | 83.1262%
CCOc1cn(-c2ccc(F)cc2C)nc1C(=O)Nc1ccc(Oc2ccnc3cc(OC)c(OC)cc23)c(F)c1 | 102.771% and 90.3388% | 85.9243% and 77.553% | 131.662% and 123.945% | 95.388% and 87.085% | 230.831% and 191.214% | 78.4446% and 96.4847% | 106.501% and 84.8653% | 96.6073% and 93.6855% | 87.51% and 89.4828% | 84.5689% and 64.7371% | 86.2071% and 96.2779% | 101.871% and 88.7626%
